Laboratory results reported in PubChem BioAssay (NCI).
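Cultured in 96-well plates, cells were exposed to test compound for 48 hours across five concentrations. GI50 marks 50% less growth. TGI marks complete inhibition of growth.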

Tests used:
Assay in all cases: NCI tumour cell line growth inhibition, 48 h
[1] = tested on: EKVX NSCLC
[2] = tested on: HL-60(TB) leukemia
[3] = tested on: KM20L2 colon
[4] = tested on: P388/ADR leukemia
[5] = tested on: SK-OV-3 ovarian
[6] = tested on: SNB-78 CNS
[7] = tested on: U251 CNS
[8] = tested on: ACHN renal
[9] = tested on: BT-549 breast
[10] = tested on: DU-145 prostate
[11] = tested on: PC-3 prostate

SMILES: CSCSCC(CO)NC(=O)/C(C)=C\c1c(C)[nH]c(=O)[nH]c1=O (stereo unspecified)
- TGI [1]: > 250 µM
- TGI [2]: > 250 µM
- TGI [3]: > 250 µM
- TGI [4]: > 250 µM
- TGI [5]: > 250 µM
- TGI [6]: > 250 µM
- TGI [7]: > 250 µM

SMILES: Cn1c2ccccc2c(=O)c2c(O)cc3c(c21)C=CC(C)(C)O3
- TGI [1]: > 25 µM
- TGI [2]: > 20.1 µM
- TGI [3]: > 25 µM
- TGI [4]: > 25 µM
- TGI [5]: > 25 µM
- TGI [6]: > 25 µM
- TGI [7]: > 25 µM

SMILES: O=C(N/N=C/c1cc(Br)cc(Br)c1[O-])c1ccccc1O.O=C(N/N=C/c1cc(Br)cc(Br)c1[O-])c1ccccc1O.[Zn+2]
- TGI [8]: 15 µM
- TGI [1]: 10.9 µM
- TGI [2]: 0.547 µM
- TGI [3]: 6.57 µM
- TGI [5]: 8.49 µM
- TGI [7]: 2.01 µM

SMILES: CSc1nc2c(c(=O)n1C)N=C(c1ccc([N+](=O)[O-])cc1)CC(c1ccccc1)N2 (stereo unspecified)
- TGI [8]: > 100 µM
- TGI [9]: > 100 µM
- TGI [10]: > 100 µM
- TGI [1]: > 100 µM
- TGI [2]: 65.9 µM
- TGI [11]: > 100 µM
- TGI [5]: > 100 µM
- TGI [7]: > 100 µM

SMILES: CCCc1cc(COC)c(C#N)c(=O)[nH]1
- TGI [8]: > 100 µM
- TGI [9]: > 100 µM
- TGI [10]: > 100 µM
- TGI [1]: > 100 µM
- TGI [2]: > 100 µM
- TGI [11]: > 100 µM
- TGI [5]: > 100 µM
- TGI [7]: > 100 µM

SMILES: CC(C)C1NC(=O)CC(c2ccccc2)N(N=O)C1c1ccccc1 (stereo unspecified)
- TGI [1]: > 100 µM
- TGI [2]: > 100 µM
- TGI [3]: > 100 µM
- TGI [4]: > 100 µM
- TGI [5]: > 100 µM
- TGI [6]: > 100 µM
- TGI [7]: > 100 µM

SMILES: O=C(/C=C/c1ccccc1)Nc1ccccc1SCCCCl
- TGI [8]: > 100 µM
- TGI [9]: > 36 µM
- TGI [10]: > 100 µM
- TGI [1]: > 100 µM
- TGI [2]: 43.6 µM
- TGI [11]: > 100 µM
- TGI [5]: > 100 µM
- TGI [7]: > 82.8 µM

SMILES: COc1cc(C2(c3ncc[nH]3)SSSCC2O)ccc1O (stereo unspecified)
- TGI [1]: > 100 µM
- TGI [2]: > 67.9 µM
- TGI [3]: > 100 µM
- TGI [4]: > 54.8 µM
- TGI [5]: > 100 µM
- TGI [6]: > 100 µM
- TGI [7]: > 100 µM

SMILES: Clc1ccc(CCN[C@H]2CCCC[C@H]2N2CCCC2)cc1Cl
- TGI [8]: > 100 µM
- TGI [9]: 59.9 µM
- TGI [10]: 59.8 µM
- TGI [1]: > 100 µM
- TGI [2]: 50 µM
- TGI [11]: > 100 µM
- TGI [5]: 78.2 µM
- TGI [7]: > 100 µM

SMILES: Cc1ccc(C)n2c1nc1ccccc12
- TGI [8]: > 100 µM
- TGI [9]: > 100 µM
- TGI [10]: > 100 µM
- TGI [1]: > 100 µM
- TGI [2]: > 100 µM
- TGI [11]: > 100 µM
- TGI [5]: > 100 µM
- TGI [7]: > 100 µM

SMILES: COc1ccccc1C(O)[C@@H]1C[C@@H]2[C@H]3CC[C@@](C)([C@@H]2O1)C3(C)C (stereo partly specified)
- TGI [8]: 35.4 µM
- TGI [9]: 42.2 µM
- TGI [10]: 49.6 µM
- TGI [1]: > 100 µM
- TGI [2]: 49.1 µM
- TGI [11]: 45.2 µM
- TGI [5]: 87.1 µM
- TGI [7]: 32.1 µM

SMILES: CCOC(=O)NC(Nc1ccc(F)cc1)(C(=O)OCC)C(F)(F)F (stereo unspecified)
- TGI [8]: > 100 µM
- TGI [9]: > 100 µM
- TGI [10]: > 100 µM
- TGI [1]: > 100 µM
- TGI [2]: > 100 µM
- TGI [11]: > 100 µM
- TGI [5]: > 100 µM
- TGI [7]: > 100 µM

SMILES: CC1=C(O)c2ccccc2C(=O)C1=O
- TGI [8]: > 100 µM
- TGI [9]: 99.3 µM
- TGI [10]: > 100 µM
- TGI [1]: > 100 µM
- TGI [2]: > 100 µM
- TGI [11]: > 100 µM
- TGI [5]: > 100 µM
- TGI [7]: > 90.9 µM

SMILES: O=[S@]1c2ccc3ccccc3c2N[C@@H]2[C@H]1[C@H]1C=C[C@@H]2C1
- TGI [8]: > 100 µM
- TGI [9]: > 100 µM
- TGI [10]: > 100 µM
- TGI [1]: > 100 µM
- TGI [2]: 63 µM
- TGI [11]: > 100 µM
- TGI [5]: > 100 µM
- TGI [7]: > 100 µM

SMILES: OC(CN(CCCl)CCCl)C(O)C(O)C(O)CN(CCCl)CCCl (stereo unspecified)
- TGI [8]: 17.3 µM
- TGI [9]: > 100 µM
- TGI [10]: > 100 µM
- TGI [1]: > 100 µM
- TGI [2]: > 100 µM
- TGI [11]: > 100 µM
- TGI [5]: > 100 µM
- TGI [7]: > 100 µM

SMILES: CC(C)=CCC[C@@H](C)C1=C(O)C(Nc2ccccc2Cl)=C(C)C(=O)C1=O
- TGI [8]: > 46.6 µM
- TGI [9]: > 75 µM
- TGI [10]: > 75 µM
- TGI [1]: > 75 µM
- TGI [2]: 4.16 µM
- TGI [11]: > 64.2 µM
- TGI [5]: > 75 µM
- TGI [7]: > 75 µM

SMILES: CCCCc1ccc(Nc2nc(OC)c3ncn(C4CC(O)C(CO)O4)c3n2)cc1 (stereo unspecified)
- TGI [8]: 31.2 µM
- TGI [9]: 38.1 µM
- TGI [10]: 37.3 µM
- TGI [1]: 6.08 µM
- TGI [2]: 4.16 µM
- TGI [11]: 37.5 µM
- TGI [5]: 27.8 µM
- TGI [7]: 40 µM

SMILES: C/C(=N\NC(=O)c1ccccc1O)c1cccc(/C(C)=N/NC(=O)c2ccccc2O)n1.O=S(=O)([O-])[O-].[Fe+2]
- TGI [8]: > 100 µM
- TGI [1]: > 100 µM
- GI50 [2]: 0.156 µM
- TGI [2]: 0.341 µM
- GI50 [3]: > 100 µM
- TGI [3]: > 100 µM
- TGI [5]: > 100 µM
- GI50 [6]: > 100 µM
- TGI [6]: > 100 µM
- GI50 [7]: 59.1 µM
- TGI [7]: > 100 µM
